Experimental data published in patent publication US20050043363A1, “Efficient microbial preparation of capravirine metabolites M4 and M5” (AGOURON PHARMACEUTICALS, INC., priority 2003, published 2005).

What was measured:
HIV = assay: Antiviral activity determined measuring XTT dye reduction; assay type: cell-based; settings: for EC50 / EC90: Human immunodeficiency virus 1, antiviral activity, XTT dye reduction, mean of 2-4 experiments (M4, M5) or 9 experiments (CPV)
Description: The term “EC50”, as used herein, means the statistically derived concentration of a toxicant that can be expected to cause a defined non-lethal effect in 50% of a given population of organisms under defined conditions.
The term “EC90”, as used herein, means the statistically derived concentration of a toxicant that can be expected to cause a defined non-lethal effect in 90% of a given population of organisms under defined conditions.

[1] = Cytotoxicity determined measuring XTT dye reduction; assay type: cell-based; settings: compound-treated cells, 50% cytotoxicity concentration, uninfected cells
Experimental: The term “CC50”, as used herein, means the 50% cytotoxicity concentration, which is calculated as the concentration of compound that decreases the viability of uninfected, compound-treated cells to 50% of that of uninfected, compound-free cells.

SMILES | TI (Therapeutic index = CC50/EC50) (HIV) | EC50 (HIV) [nM] | EC90 (HIV) [nM] | CC50 [1] [µM]
CC(CO)c1nc(COC(N)=O)n(Cc2ccncc2)c1Sc1cc(Cl)cc(Cl)c1 (stereo not drawn) [M5] | >6,882 | 47 | 110 | > 320
CC(C)(O)c1nc(COC(N)=O)n(Cc2ccncc2)c1Sc1cc(Cl)cc(Cl)c1 [M4] | >6,737 | 48 | 110 | > 320
CC(C)c1nc(COC(N)=O)n(Cc2ccncc2)c1Sc1cc(Cl)cc(Cl)c1 [CPV, 2-carbamoyloxymethyl-5-(3,5-dichlorophenyl)thio-4-isopropyl-1-(4-pyridyl)methyl-1H-imidazole, reference compound] | 45,667 | 1.5 | 3.2 | 69
